Paper PMC10916623, “Tissue distribution and pharmacokinetics of isoxanthohumol from hops in rodents” (Food Science & Nutrition, 2023)
Where “and” joins values, the source holds several entries; their conditions need not be identical. Identical values can stand only once. Like-named read-outs stand apart in the source and are kept apart here.

Assays:
[1] = Plasma pharmacokinetics after single-gavage administration of IXA to mice; type: in vivo, C57/BL6 mice; conditions: for Cmax: mean ± SEM
Protocol: Six‐week‐old male C57/BL6 mice (initial BW: 19–24 g; Japan SLC, Shizuoka, Japan) were housed in a room maintained at 23–26°C with a 12‐h light–dark cycle. During the 1‐week acclimatization period, they were allowed free access to a commercial diet (Oriental Yeast Co., Tokyo, Japan) and water. Two days before the experiment, they were fed AIN‐93M (Oriental Yeast Co.). Before drug administration, they were fasted for 20 h, but had free access to water. IXA dissolved in 3% hydroxypropyl‐β‐cyclodextrin and 5% ethanol (Fujifilm; Wako Pure Chemical Corp., Osaka, Japan) was named the injection solution and administered (50 mg/kg BW) to mice intragastrically using a gastric feeding tube (AS ONE, Osaka, Japan). Blood, brain, thymus, heart, lung, liver, spleen, pancreas, kidney, and gastrocnemius muscle were collected 0.5, 1, 2, 4, 8, 12, 24, and 48 h after administration. We also set up a control group, and mice in this group were sacrificed just before we started administering IXA at 0 h. At 4 h after administration, mice were allowed free access to AIN‐93 M. Plasma was isolated by centrifugation at 17 × 10^3 m/s^2 (5911, Kubota, Tokyo, Japan) for 5 min at 4°C. All tissues were dissected, weighed, and immediately frozen in liquid nitrogen. All samples were stored at −80°C until analysis.
(§1) Plasma samples were deconjugated by β‐glucuronidase type H‐1 (which has β‐glucuronidase and sulphatase activity; Sigma, St. Louis, MO, USA; G0751) to convert aglycon from conjugated metabolites of IXA and 8‐PN, as described in a previous report (Y. Tanaka et al., [2022]). Briefly, 100 μL of plasma was mixed with 900 μL of 0.1 mol/L sodium acetate buffer (pH 4.7), 200 μL of 50 mmol/L ascorbic acid, and 1 mL of 1.67 μkat/100 μL of β‐glucuronidase type H‐1, and then incubated for 30 min at 37°C. Then, 2.4 nmol of QTM was added to the samples as the internal standard. The liberated aglycone was extracted using ethyl acetate (Kanto Kagaku, 14,029‐2B).
(§2) The plasma and tissue extracts were evaporated using a Centrifugal Evaporator (EYERA, Tokyo, Japan, CVE‐3000). The samples were stored at −80°C until the next day. Then, the samples were dissolved in 120 μL of a mobile phase solution and divided into two test tubes. The first sample was injected into the HPLC with an ultraviolet detection system (Shimadzu, Kyoto, Japan).
(§3) IXA and 8‐PN concentrations were determined by their respective standard curves using an internal standard method. A Cadenza 3‐μm CD‐C18 HPLC column (CD005, 150 × 4.6 mm; Imtakt Corporation, Kyoto, Japan) was equipped for HPLC (λ = 295 nm). The mobile phase consisted of methanol:water:acetic acid (60:35:5, v/v/v). The flow rate was set at 1.0 mL/min. […] Because clear peaks over 4.5 pmol/sample were detected for IXA and 8‐PN by visual evaluation, we determined that these concentrations were the peak limit of detections for each flavonoid. We applied calibration curves in the IXA/QTM concentration ratio range of 0.007–35.1 (R ^2 = .9955).

[2] = Tissue and plasma accumulation after daily gavage administration of IXA to mice for 14 days; type: in vivo, C57/BL6 mice; conditions: IXA 30 mg/kg BW daily 14 days, 24 h after final administration
Protocol: Animal species, age, sex, initial BW, feeding conditions, and dosage method were the same as those for the single gavage administration test, but the dose was 30 mg/kg BW. […] Daily gavage administration without fasting was performed at 12:00 PM for 14 days. The final BW was 21–26 g. Blood, brain, thymus, heart, lung, liver, spleen, kidney, and gastrocnemius muscle were collected 24 h after the final administration. The sample collection method was the same as that for the single gavage administration test.
as §1
(§4) Tissue sample deconjugation was performed as described in a previous report with slight modifications (Tanaka et al., [2022]). Tissues were homogenized in phosphate‐buffered saline (pH 7.4), which was nine times the tissue volume. The tissue homogenate was incubated in 50 mmol/L ascorbic acid (one‐fifth the volume of phosphate‐buffered saline) and 1.67 μkat/100 μL of β‐glucuronidase type H‐1 in 0.1 mol/L sodium acetate buffer (pH 4.7, nine times the volume of the sample) for 2 h at 37°C. Then, 2.4 nmol of QTM was added to samples as an internal standard. The supernatant was isolated by centrifugation at 17 × 10^3 m/s^2 (Kubota) for 5 min at 4°C. Then, methanol (Kanto Kagaku, 25183‐2B) was added to the pellets, and they were shaken for 1 min. The methanol layer and pellets were separated by centrifugation at 17 × 10^3 m/s^2 (Kubota, RY1071‐A000) for 5 min at 4°C. Methanol extraction was repeated three times. Finally, methanol extracts were mixed with the supernatant (the composition of the mixture was 30% methanol) and then applied to an Inert Sep C8 (200 mg/3 mL; GL Sciences, Tokyo, Japan; 5010‐61082) cartridge. The cartridge was preconditioned with 6 mL of 2% acetic acid in methanol, and then 9 mL of 2% acetic acid in water. The extracted tissue was passed through the cartridge, and it was washed with 5 mL of 2% acetic acid in 30% methanol aq. The flavonoids were eluted with 10 mL of 2% acetic acid in methanol.
as §2, §3

[3] = Liver accumulation after intragastric IXA administration at various concentrations to rats for 28 days; type: in vivo, Sprague–Dawley rats; conditions: rat liver; IXA 112.5–1500 mg/kg BW once a day for 28 days; Pearson
Protocol: Six‐week‐old female Sprague–Dawley rats (Charles River Laboratories Japan, Inc., Yokohama, Japan) were housed in a room maintained at 20–26°C on a 12‐h light–dark cycle. The initial BW of rats was 176–179 g. They were allowed free access to a commercial diet (CRF‐1) and water during the experiment. IXA dissolved in injection solution was administered intragastrically to rats (112.5, 225, 360, 450, and 1500 mg/kg BW) daily for 28 days using a gastric feeding tube. We also set up a control group to which the injection solution was administered. The final BW of rats was 231–241 g. The liver was collected the day after the last administration. The rats were fasted for 16–24 h before they were euthanized, but they had free access to water. Liver samples were stored at −80°C until analysis.
as §4
The plasma and tissue extracts were evaporated using a Centrifugal Evaporator (EYERA, Tokyo, Japan, CVE‐3000). The samples were stored at −80°C until the next day. Then, the samples were dissolved in 120 μL of a mobile phase solution and divided into two test tubes. […]
IXA and 8‐PN concentrations were determined by their respective standard curves using an internal standard method. […] Because clear peaks over 4.5 pmol/sample were detected for IXA and 8‐PN by visual evaluation, we determined that these concentrations were the peak limit of detections for each flavonoid. […]

[4] = single oral IXA 50 mg/kg BW, plasma

4,7‐dihydroxy‐5‐methoxy‐8‐prenylflavanone [IXA]
IXA accumulation, single-ingestion test (at 24 h) ([1]; plasma, single IXA 50 mg/kg BW, 24 h): 0.2 ± 0.1 μmol/L of plasma | time at which IXA was increased further ([1]; plasma, single oral IXA 50 mg/kg BW): 8 h | IXA in plasma at 48 h after administration ([1]; single oral IXA 50 mg/kg BW, 48 h): not detected | T 1/2 (half-life in the mean elimination phase) [1, 4]: 1.43 h and 1.4 h | time until which detected in plasma after ingestion [1, 4]: 24 h | Cmax ([1]; single oral IXA 50 mg/kg BW, plasma, at 0.5 h, read-out: plasma maximum concentration (C max)): 3.95 ± 0.81 µM | AUC24h ([1]; single oral IXA 50 mg/kg BW, plasma, calculated using the mean at each time point): 18.2 µM·h | Cmax ([1]; single oral IXA 50 mg/kg BW, plasma, read-out: C max): 4 ± 0.8 µM | IXA accumulation, 14-day repeated-ingestion test ([2]; brain): 0.2 ± 0.1 nmol/g of tissue | IXA accumulation, 14-day repeated-ingestion test ([2]; heart): not detected | IXA accumulation, 14-day repeated-ingestion test ([2]; kidney): 5.8 ± 1.0 nmol/g of tissue | IXA accumulation, 14-day repeated-ingestion test ([2]; liver): 8.6 ± 2.9 nmol/g of tissue | IXA accumulation, 14-day repeated-ingestion test ([2]; lung): 3.2 ± 2.8 nmol/g of tissue | IXA accumulation, 14-day repeated-ingestion test ([2]; plasma): not detected | IXA accumulation, 14-day repeated-ingestion test ([2]; spleen): 3.4 ± 2.0 nmol/g of tissue | IXA accumulation, 14-day repeated-ingestion test ([2]; thymus): 4.3 ± 3.8 nmol/g of tissue | correlation coefficient between dose-concentration and accumulation [3]: .813
